Some test systems named below: MCF7; Hs-578T; NCI/ADR-RES; MDA-MB-435; DU-145.
Test in all cases: DTP human tumour cell line panel, 48 h

The structures appear in SMILES notation.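 The compound was tested at five concentrations on cells cultured in 96-well plates, with a 48-hour exposure period. GI50 is the concentration that inhibits growth by half.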 Active and inactive are the calls of the source. Rule as the data show it: active = GI50 up to about 1.1 µM and inactive = higher. Starred links: 1 amine or outer side, 2 acyl side, 3 side chain; linkers in the order of their positions; H or OH if unused. Non-standard residues stand in square brackets, D forms with d. Residues, ends and D or L forms follow the SMILES beside them. *: point of attachment. X47 = CCC(=O)CC1CC(C)CC(C(=O)[*:2])N1[*:1]; X46 = CCCCCCCCC(C)C(=O)*; Aib = CC(C)(N)C(=O)O; X48 = CC(CN(C)CCO)N*

Consider `O=S(=O)(O)c1cc(/N=N/c2c(O)ccc3ccccc23)cc2c(S(=O)(=O)O)cccc12`, for which the GI50 with MCF7, in the experiment on Hs-578T, in the experiment with NCI/ADR-RES and in the experiment with MDA-MB-435 was > 100 µM (inactive) throughout.
Consider `CC(=NNC(=S)Nc1ccccc1C)c1cccc(C(C)=NNC(=S)Nc2ccccc2C)n1`, for which the GI50 (as a rule, the concentration at which growth is held to half of that of the control) is 65.2 µM (inactive) with MCF7, 18.6 µM (inactive) with NCI/ADR-RES, 60.4 µM (inactive) in the experiment on MDA-MB-435 and 23.1 µM (inactive) with DU-145.
Turning to `COc1ccc2nc3c([N+](=O)[O-])ccc(NCCN(C)C)c3c(N)c2c1`, the GI50 was 0.513 µM (active) in the experiment on MCF7, 2.62 µM (inactive) in the experiment with Hs-578T, 0.847 µM (active) with NCI/ADR-RES and 1.75 µM (inactive) in the experiment on DU-145.
As for `Cc1nnc2nc(-c3ccc(Cl)cc3Cl)cc(-c3ccc(Cl)cc3)n12`, the GI50 was 31 µM (inactive) in the experiment with MCF7; > 100 µM (inactive) with Hs-578T; 87.5 µM (inactive) in the experiment on NCI/ADR-RES; > 100 µM (inactive) in the experiment on MDA-MB-435; > 100 µM (inactive) in the experiment on DU-145.
On to `CC(=O)/C(=C/NC(=S)Nc1ccc(Cl)c(Cl)c1)C(=O)Nc1ccccc1C`, for which the GI50 in the experiment with MCF7 was 26.9 µM (inactive); with NCI/ADR-RES it was 18.7 µM (inactive); in the experiment on MDA-MB-435 it was 28.3 µM (inactive); in the experiment with DU-145, 26.4 µM (inactive).
As to `C/C(=N/NC(=S)Nc1ccc([N+](=O)[O-])cc1)c1cccc(/C(C)=N\NC(=S)Nc2ccc([N+](=O)[O-])cc2)n1`, the GI50 in the experiment with MCF7 was 0.341 µM (active); in the experiment with Hs-578T, 3.9 µM (inactive); with NCI/ADR-RES, 0.469 µM (active); in the experiment on MDA-MB-435, 0.931 µM (active).
On to `N#C/C(=C1/c2cc([N+](=O)[O-])ccc2-c2c1cc([N+](=O)[O-])cc2[N+](=O)[O-])N1CCCCC1`, for which the GI50 in the experiment with MCF7 is 19 µM (inactive); in the experiment with Hs-578T, 43.7 µM (inactive); with NCI/ADR-RES it was 51.3 µM (inactive); in the experiment with MDA-MB-435, > 100 µM (inactive); in the experiment on DU-145 it was 38.5 µM (inactive).
With `Cc1cc2nc3c(C#N)c4c(c(Nc5ccc(Cl)cc5)n3c2cc1C)CCC4`, the GI50 in the experiment on NCI/ADR-RES was 22.6 µM (inactive); in the experiment on MDA-MB-435, 33.5 µM (inactive); in the experiment with DU-145, 26.5 µM (inactive).
As to `COC(=O)CNS(=O)(=O)c1ccc(-c2c3nc(c(-c4ccc(S(=O)(=O)NCC(=O)OC)cc4)c4ccc([nH]4)c(-c4ccc(S(=O)(=O)NCC(=O)OC)cc4)c4nc(c(-c5ccc(S(=O)(=O)NCC(=O)OC)cc5)c5ccc2[nH]5)C=C4)C=C3)cc1`, the GI50 in the experiment with MCF7, with Hs-578T, in the experiment with NCI/ADR-RES, with MDA-MB-435 and in the experiment with DU-145 was > 100 µM (inactive) in each case.
As for `COC(=O)C(=O)Nc1cc2c3c(c1)Oc1cccc4c1C3(C)c1c(cccc1O2)O4`, the GI50 is > 100 µM (inactive) in the experiment with MCF7; > 83.4 µM (inactive) with Hs-578T; 6.56 µM (inactive) with NCI/ADR-RES; > 100 µM (inactive) in the experiment with MDA-MB-435; > 44.7 µM (inactive) with DU-145.
Consider `COc1ccc(C(SCCO)(c2ccccc2)c2ccc(OC)cc2)cc1`, for which the GI50 was 5.36 µM (inactive) with MCF7; 11.1 µM (inactive) in the experiment with Hs-578T; 15.9 µM (inactive) with NCI/ADR-RES; 5.65 µM (inactive) in the experiment with MDA-MB-435; 15.5 µM (inactive) in the experiment on DU-145.
Taken in the same sequence, the figures for `COc1ccc(/C=C/c2cc(O)cc(OC3OC(CO)C(O)C(O)C3O)c2)cc1O` (stereo not given) were > 100 µM (inactive), > 100 µM (inactive), 94 µM (inactive), 82.4 µM (inactive) and 37.8 µM (inactive).
Take `CC(=O)OC1C(O)COC(O[C@H]2CC[C@]34C[C@]35CC[C@]3(C)C([C@@]6(C)CC[C@@H](C(C)(C)O)O6)[C@@H](O)C[C@@]3(C)C5C[C@H](OC3OCC(O)C(O)C3O)[C@H]4C2(C)C)C1OC1OCC(O)C(O)C1O` (stereo not given in full): the GI50 with MCF7, in the experiment on Hs-578T, in the experiment on NCI/ADR-RES, in the experiment on MDA-MB-435 and in the experiment on DU-145 was > 100 µM (inactive) throughout.
Take `c1ccc(SC(Sc2ccccc2)c2ccc3c(c2)OCO3)cc1`: the GI50 in the experiment with Hs-578T, with NCI/ADR-RES, in the experiment on MDA-MB-435 and with DU-145 was > 100 µM (inactive) in each case.
On to `COc1ccc(N2C(=O)C(Cl)C2c2cc3cc(Br)ccc3nc2Cl)cc1` (stereo not given), for which the GI50 with MCF7 is 4.82 µM (inactive); in the experiment with Hs-578T, 11.5 µM (inactive); in the experiment with NCI/ADR-RES it was 5.41 µM (inactive); with MDA-MB-435 it was 4.71 µM (inactive); in the experiment with DU-145, 7.46 µM (inactive).
Regarding `O=S(=O)(N/N=C1\CC2CCC1C2)c1ccccc1` (stereo not given), the GI50 in the experiment with MCF7, in the experiment on Hs-578T, in the experiment with NCI/ADR-RES, in the experiment on MDA-MB-435 and with DU-145 was > 100 µM (inactive) throughout.
Take `COc1ccc(C2=C(OC(C)=O)c3cccn3-c3ccccc3S2)cc1`: the GI50 with MCF7 was 3.48 µM (inactive); with MDA-MB-435, 0.265 µM (active); in the experiment with DU-145, 2.46 µM (inactive).
Regarding `Cc1nc2ccc(F)cc2c2c1CCO2`, the GI50 with Hs-578T was > 100 µM (inactive); in the experiment with NCI/ADR-RES, > 100 µM (inactive); in the experiment with MDA-MB-435, 70.1 µM (inactive); in the experiment on DU-145, > 100 µM (inactive).
On to `CC(NO)/C(=N/O)c1ccco1` (stereo not given), for which the GI50 in the experiment on MCF7, with NCI/ADR-RES, in the experiment on MDA-MB-435 and in the experiment on DU-145 was > 10 µM (inactive) each time.
Regarding `N#CC[C@@H](O)COc1ccccc1`, the GI50 in the experiment on MCF7, with Hs-578T, in the experiment on MDA-MB-435 and in the experiment with DU-145 was > 100 µM (inactive) each time.
For the molecule `CN(C)c1ccc(/C=C2\Oc3ccccc3C2=O)cc1`, the GI50 in the experiment on MCF7 is 54.1 µM (inactive); in the experiment on Hs-578T, 22.5 µM (inactive); with NCI/ADR-RES it was 68.5 µM (inactive); in the experiment with MDA-MB-435, 56.8 µM (inactive); in the experiment with DU-145 it was > 100 µM (inactive).
Taken in the same sequence, the figures for `OC1C2CN3CCN(C2)CC1(c1ccccc1)C3` (stereo not given) were > 100 µM (inactive), > 100 µM (inactive), > 100 µM (inactive), > 100 µM (inactive) and > 100 µM (inactive).
In the case of `CCOC(=O)c1c(-c2ccc(OC)cc2)c(C#N)c(=S)n(C2OC(COC(C)=O)C(OC(C)=O)C(OC(C)=O)C2OC(C)=O)c1C` (stereo not given), the GI50 in the experiment with MCF7, in the experiment with NCI/ADR-RES, in the experiment with MDA-MB-435 and in the experiment on DU-145 was > 100 µM (inactive) in each case.
In the case of `COc1ccc(/C=C/C(=N/NC(=O)N/N=C(/C=C/c2ccc(OC)cc2)C(C)(C)CN2CCCCC2)C(C)(C)CN2CCCCC2)cc1`, the GI50 is 2.35 µM (inactive) in the experiment on MCF7, 1.87 µM (inactive) in the experiment with Hs-578T, 1.97 µM (inactive) in the experiment on NCI/ADR-RES and > 10 µM (inactive) in the experiment with DU-145.
Take `O=C1/C(=C\c2cccc(Oc3ccccc3)c2)SC(c2ccccc2)N1c1cc(Cl)ccc1Cl` (stereo not given): the GI50 is 25.9 µM (inactive) in the experiment with MCF7; 24.4 µM (inactive) in the experiment with Hs-578T; 42.6 µM (inactive) in the experiment with NCI/ADR-RES; 32.3 µM (inactive) in the experiment on MDA-MB-435; 36 µM (inactive) with DU-145.
Take `COc1cc(OC)cc(Oc2nc3ccc(C(F)(F)F)cc3nc2-c2ccccc2)c1`: the GI50 in the experiment with MCF7, in the experiment on Hs-578T, in the experiment on NCI/ADR-RES, in the experiment with MDA-MB-435 and in the experiment on DU-145 was > 100 µM (inactive) in each case.
For the molecule `CCCCCCCCC(C)C(=O)N1CCCC1C(=O)N1C(CC(=O)CC)CC(C)CC1C(=O)NC(C)C(=O)NC(C)(C)C(=O)NC(C)(C)C(=O)NC(C(=O)NC(C)C(=O)NC(C)(C)C(=O)NC(C)(C)C(=O)NC(C)CN(C)CCO)C(C)CC` (stereo not given) (X46-P[X47]A[Aib][Aib]IA[Aib][Aib]-X48; configuration not given here), the GI50 in the experiment on MCF7 is < 0.01 µM (active); in the experiment with Hs-578T, 0.168 µM (active); in the experiment with NCI/ADR-RES, 0.435 µM (active); in the experiment with MDA-MB-435, 1.41 µM (inactive); with DU-145 it was 0.0847 µM (active).
With `Sc1ncnc2c1ncn2Cc1ccco1`, the GI50 in the experiment with MCF7, with Hs-578T, in the experiment on NCI/ADR-RES, in the experiment with MDA-MB-435 and in the experiment on DU-145 was > 100 µM (inactive) each time.
Consider `N#Cc1nc(COCCOCc2ccc(F)cc2)oc1N`, for which the GI50 with MCF7, in the experiment with NCI/ADR-RES, in the experiment with MDA-MB-435 and in the experiment with DU-145 was > 100 µM (inactive) each time.
Turning to `CSS(C)(=O)=O`, the GI50 with MCF7 is 26.7 µM (inactive); in the experiment with Hs-578T, 49.2 µM (inactive); in the experiment on NCI/ADR-RES, 58.9 µM (inactive); in the experiment on MDA-MB-435, 20.2 µM (inactive); with DU-145 it was 21.5 µM (inactive).
Taken in the same sequence, the figures for `CCCCCCCCCCCCCCCCCc1nc(Cl)nc(Cl)c1Cl` were > 100 µM (inactive), > 100 µM (inactive), > 100 µM (inactive), > 100 µM (inactive) and > 100 µM (inactive).
As to `CCCNC(=O)OCc1c(COC(=O)NCCC)c(-c2ccc(Cl)c(Cl)c2)n2c1CCC2`, the GI50 with MCF7 is 5.75 µM (inactive); with Hs-578T it was 6.56 µM (inactive); with NCI/ADR-RES it was 3.89 µM (inactive); with MDA-MB-435 it was 11.5 µM (inactive); in the experiment with DU-145, 7 µM (inactive).
On to `COc1cc(C/C=C/c2ccccc2)c(OC)cc1O` [VIOLASTYRENE], for which the GI50 is 30.8 µM (inactive) with Hs-578T, 26.5 µM (inactive) with NCI/ADR-RES, 18.5 µM (inactive) in the experiment with MDA-MB-435 and 17.3 µM (inactive) with DU-145.
On to `COC(=O)/C=C/c1ccc2c(c1)CC1(Cc3ccccc3C1)C2`, for which the GI50 in the experiment on MCF7 is > 100 µM (inactive); in the experiment with Hs-578T, 23.6 µM (inactive); in the experiment on NCI/ADR-RES it was > 100 µM (inactive); in the experiment with MDA-MB-435, 41.3 µM (inactive).
Turning to `c1ccc(-c2ccc(-c3ccc(C4=NCCN4)cc3)o2)cc1`, the GI50 with MCF7 is 1.91 µM (inactive); with NCI/ADR-RES it was 4.3 µM (inactive); in the experiment on MDA-MB-435, 1.97 µM (inactive); in the experiment with DU-145 it was 3.25 µM (inactive).
For `CCOP(C)(=O)C(Cc1c[nH]c2ccccc12)C(=O)O` (stereo not given), the GI50 with MCF7, in the experiment on NCI/ADR-RES, in the experiment on MDA-MB-435 and with DU-145 was > 100 µM (inactive) in each case.

For the origin of these results see ChEMBL document CHEMBL1201862, “PubChem BioAssay data set” (2004).
